Test results: the supplement of paper PMC12370961

Experiments:
Assay in all cases: differential drug sensitivity score (dDSS) relative to sarcoma reference cohort mean DSS (DSS units (0-100 scale difference)); higher = more selective sensitivity than reference sarcomas
Settings in all cases: exposure time: 72 h; concentration range: 10-10000 nM
ES-ZH009 = test system: ES-ZH009 (patient-derived Ewing sarcoma tumoroid)
Protocol: (§1)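 Drug response profiling of patient-derived Ewing sarcoma and CIC::DUX4 sarcoma tumoroid models (or cells tested directly after isolation from the tumor, 'direct'). The DSS is the normalised AUC (0-100); dDSS is the sample DSS minus the mean DSS of a 34-sarcoma reference cohort profiled in the same lab.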

ES-ZH016 direct = test system: ES-ZH016 direct (Ewing sarcoma cells right after isolation)
Protocol: as §1

CDS-ZH001-2 = test system: CDS-ZH001-2 (patient-derived CIC-DUX4 sarcoma tumoroid)
Protocol: as §1

CDS-ZH002 = test system: CDS-ZH002 (patient-derived CIC-DUX4 sarcoma tumoroid)
Protocol: as §1

ES-ZH004 = test system: ES-ZH004 (patient-derived Ewing sarcoma tumoroid)
Protocol: as §1

ES-ZH008 = test system: ES-ZH008 (patient-derived Ewing sarcoma tumoroid)
Protocol: as §1

ES-ZH002 = test system: ES-ZH002 (patient-derived Ewing sarcoma tumoroid)
Protocol: as §1

ES-ZH016 = test system: ES-ZH016 (patient-derived Ewing sarcoma tumoroid)
Protocol: as §1

ES-ZH007 = test system: ES-ZH007 (patient-derived Ewing sarcoma tumoroid)
Protocol: as §1

ES-ZH001 = test system: ES-ZH001 (patient-derived Ewing sarcoma tumoroid)
Protocol: as §1

CDS-ZH003 = test system: CDS-ZH003 (patient-derived CIC-DUX4 sarcoma tumoroid)
Protocol: as §1

CDS-ZH002 direct = test system: CDS-ZH002 direct (CIC-DUX4 sarcoma cells right after isolation)
Protocol: as §1

CDS-ZH001 = test system: CDS-ZH001 (patient-derived CIC-DUX4 sarcoma tumoroid)
Protocol: as §1

Row | Structure (SMILES) | differential drug sensitivity score (ES-ZH009) | differential drug sensitivity score (ES-ZH016 direct) | differential drug sensitivity score (CDS-ZH001-2) | differential drug sensitivity score (CDS-ZH002) | differential drug sensitivity score (ES-ZH004) | differential drug sensitivity score (ES-ZH008) | differential drug sensitivity score (ES-ZH002) | differential drug sensitivity score (ES-ZH016) | differential drug sensitivity score (ES-ZH007) | differential drug sensitivity score (ES-ZH001) | differential drug sensitivity score (CDS-ZH003) | differential drug sensitivity score (CDS-ZH002 direct) | differential drug sensitivity score (CDS-ZH001)
1 | CO[C@H]1C[C@@H]2CC[C@@H](C)[C@@](O)(O2)C(=O)C(=O)N2CCCC[C@H]2C(=O)O[C@H]([C@H](C)C[C@@H]2CC[C@@H](OC(=O)C(C)(CO)CO)[C@H](OC)C2)CC(=O)[C@H](C)/C=C(\C)[C@@H](O)[C@@H](OC)C(=O)[C@H](C)C[C@H](C)/C=C/C=C/C=C/1C [Temsirolimus] | 11.1 | -6.2 | 4 | -7 | 8.3 | 3.1 | 15.8 | -3 | 5.9 | 6.2 | 2.1 | 4.8 | 0.8
2 | CCCC(CCC)C(=O)O [Valproic acid] | 1.7 | 6.5 | -0.9 | -2.5 | 8.2 | 1.7 | 4.4 | -2.5 | 0.9 | 2.8 | -1.3 | -1.9 | -2.5
3 | O=C(O)C1(C(=O)O)CCC1.[NH2-].[NH2-].[Pt+2] [Carboplatin] | -1.6 | 8.6 | -1.6 | -1.6 | 0.8 | 2.5 | 2.2 | 1.7 | -0.9 | -0.3 | -1.6 | -1.2 | –
4 | CCn1cc(C(=O)O)c(=O)c2c(N)c(F)c(NC3CCCCC3)cc21 | 3.3 | 7.2 | -0.9 | -0.9 | -0.9 | -0.9 | -0.9 | -0.9 | -0.3 | -0.9 | -0.9 | – | -0.9
5 | CC(C)(C)Cn1c(N)nc2ccc(-c3[nH]c(C(C)(C)C)nc3-c3ccc(F)cc3)nc21 [Ralimetinib] | -3.2 | – | 6.3 | 4.9 | -2.2 | -4.4 | 0 | – | -4.3 | -5.3 | 13.4 | – | -2.9
6 | COc1ccc(-c2nc(N3CCOCC3)c3sc(CN(C)c4ncc(C(=O)NO)cn4)cc3n2)cn1 [Fimepinostat] | 6.1 | 8.8 | 5.7 | -3.2 | 8.6 | 9.2 | 6 | 0.5 | 10.6 | 5.9 | -0.5 | – | 1.5
7 | CCN(CC)CCCC(C)Nc1ccnc2cc(Cl)ccc12 (centres undefined) [Chloroquine] | -2 | – | 4.7 | 5.3 | 3 | 1.4 | -0.6 | – | 2.8 | -3.8 | -3.8 | – | 0.3
8 | Cc1c(-c2ccc(N3CCc4cccc(C(=O)Nc5nc6ccccc6s5)c4C3)nc2C(=O)O)cnn1CC12CC3CC(CC(C3)C1)C2 | 10.9 | 7.8 | – | – | – | – | – | -9.5 | – | – | – | 2.8 | –
9 | N.N.[Cl][Pt][Cl] [Cisplatin] | -1.4 | – | – | -0.5 | 5.8 | 2.9 | 7.1 | – | 3.9 | -1.1 | – | -2.4 | –
